## C[C@]12CCC3=C4CCC(=O)C=C4CC[C@H]3[C@@H]1CC[C@@]2(O)CC#N
In DMF, 273.15 K
  solubility (mole fraction): 0.0262
In DMF, 278.15 K
  solubility (mole fraction): 0.0275
In DMF, 283.15 K
  solubility (mole fraction): 0.0293
In DMF, 288.15 K
  solubility (mole fraction): 0.0303
In DMF, 293.15 K
  solubility (mole fraction): 0.0318
In DMF, 298.15 K
  solubility (mole fraction): 0.0333
In DMF, 303.15 K
  solubility (mole fraction): 0.0343
In DMF, 308.15 K
  solubility (mole fraction): 0.0354
In DMF, 313.15 K
  solubility (mole fraction): 0.0364
In DMF, 318.15 K
  solubility (mole fraction): 0.0374
In MTBE, 273.15 K
  solubility (mole fraction): 0.000258
In MTBE, 278.15 K
  solubility (mole fraction): 0.000281
In MTBE, 283.15 K
  solubility (mole fraction): 0.000302
In MTBE, 288.15 K
  solubility (mole fraction): 0.000327
In MTBE, 293.15 K
  solubility (mole fraction): 0.000355
In MTBE, 298.15 K
  solubility (mole fraction): 0.000384
In MTBE, 303.15 K
  solubility (mole fraction): 0.000416
In MTBE, 308.15 K
  solubility (mole fraction): 0.00045
In MTBE, 313.15 K
  solubility (mole fraction): 0.000489
In MTBE, 318.15 K
  solubility (mole fraction): 0.000531
In THF, 273.15 K
  solubility (mole fraction): 0.0106
In THF, 278.15 K
  solubility (mole fraction): 0.0115
In THF, 283.15 K
  solubility (mole fraction): 0.0125
In THF, 288.15 K
  solubility (mole fraction): 0.0138
In THF, 293.15 K
  solubility (mole fraction): 0.0148
In THF, 298.15 K
  solubility (mole fraction): 0.0158
In THF, 303.15 K
  solubility (mole fraction): 0.0172
In THF, 308.15 K
  solubility (mole fraction): 0.0182
In THF, 313.15 K
  solubility (mole fraction): 0.0192
In THF, 318.15 K
  solubility (mole fraction): 0.0201
In acetone, 273.15 K
  solubility (mole fraction): 0.00464
In acetone, 278.15 K
  solubility (mole fraction): 0.00495
In acetone, 283.15 K
  solubility (mole fraction): 0.00536
In acetone, 288.15 K
  solubility (mole fraction): 0.00576
In acetone, 293.15 K
  solubility (mole fraction): 0.00616
In acetone, 298.15 K
  solubility (mole fraction): 0.00667
In acetone, 303.15 K
  solubility (mole fraction): 0.00717
In acetone, 308.15 K
  solubility (mole fraction): 0.00777
In acetone, 313.15 K
  solubility (mole fraction): 0.00828
In acetone, 318.15 K
  solubility (mole fraction): 0.00899
In acetonitrile, 273.15 K
  solubility (mole fraction): 0.00125
In acetonitrile, 278.15 K
  solubility (mole fraction): 0.00149
In acetonitrile, 283.15 K
  solubility (mole fraction): 0.00172
In acetonitrile, 288.15 K
  solubility (mole fraction): 0.00202
In acetonitrile, 293.15 K
  solubility (mole fraction): 0.00232
In acetonitrile, 298.15 K
  solubility (mole fraction): 0.00273
In acetonitrile, 303.15 K
  solubility (mole fraction): 0.00313
In acetonitrile, 308.15 K
  solubility (mole fraction): 0.00363
In acetonitrile, 313.15 K
  solubility (mole fraction): 0.00414
In acetonitrile, 318.15 K
  solubility (mole fraction): 0.00475
In ethanol, 273.15 K
  solubility (mole fraction): 0.000981
In ethanol, 278.15 K
  solubility (mole fraction): 0.00122
In ethanol, 283.15 K
  solubility (mole fraction): 0.00152
In ethanol, 288.15 K
  solubility (mole fraction): 0.00189
In ethanol, 293.15 K
  solubility (mole fraction): 0.00233
In ethanol, 298.15 K
  solubility (mole fraction): 0.00287
In ethanol, 303.15 K
  solubility (mole fraction): 0.00353
In ethanol, 308.15 K
  solubility (mole fraction): 0.00434
In ethanol, 313.15 K
  solubility (mole fraction): 0.00524
In ethanol, 318.15 K
  solubility (mole fraction): 0.00637
In ethyl acetate, 273.15 K
  solubility (mole fraction): 0.00145
In ethyl acetate, 278.15 K
  solubility (mole fraction): 0.00167
In ethyl acetate, 283.15 K
  solubility (mole fraction): 0.00192
In ethyl acetate, 288.15 K
  solubility (mole fraction): 0.00215
In ethyl acetate, 293.15 K
  solubility (mole fraction): 0.00242
In ethyl acetate, 298.15 K
  solubility (mole fraction): 0.00273
In ethyl acetate, 303.15 K
  solubility (mole fraction): 0.00304
In ethyl acetate, 308.15 K
  solubility (mole fraction): 0.00338
In ethyl acetate, 313.15 K
  solubility (mole fraction): 0.00374
In ethyl acetate, 318.15 K
  solubility (mole fraction): 0.00414
In isopropanol, 273.15 K
  solubility (mole fraction): 0.000738
In isopropanol, 278.15 K
  solubility (mole fraction): 0.000899
In isopropanol, 283.15 K
  solubility (mole fraction): 0.0011
In isopropanol, 288.15 K
  solubility (mole fraction): 0.00131
In isopropanol, 293.15 K
  solubility (mole fraction): 0.00158
In isopropanol, 298.15 K
  solubility (mole fraction): 0.00192
In isopropanol, 303.15 K
  solubility (mole fraction): 0.00227
In isopropanol, 308.15 K
  solubility (mole fraction): 0.00273
In isopropanol, 313.15 K
  solubility (mole fraction): 0.00323
In isopropanol, 318.15 K
  solubility (mole fraction): 0.00378
In methanol, 273.15 K
  solubility (mole fraction): 0.00182
In methanol, 278.15 K
  solubility (mole fraction): 0.00209
In methanol, 283.15 K
  solubility (mole fraction): 0.00235
In methanol, 288.15 K
  solubility (mole fraction): 0.00269
In methanol, 293.15 K
  solubility (mole fraction): 0.00303
In methanol, 298.15 K
  solubility (mole fraction): 0.00344
In methanol, 303.15 K
  solubility (mole fraction): 0.00384
In methanol, 308.15 K
  solubility (mole fraction): 0.00434
In methanol, 313.15 K
  solubility (mole fraction): 0.00493
In methanol, 318.15 K
  solubility (mole fraction): 0.00553
In n-propanol, 273.15 K
  solubility (mole fraction): 0.00136
In n-propanol, 278.15 K
  solubility (mole fraction): 0.00161
In n-propanol, 283.15 K
  solubility (mole fraction): 0.00187
In n-propanol, 288.15 K
  solubility (mole fraction): 0.00219
In n-propanol, 293.15 K
  solubility (mole fraction): 0.00256
In n-propanol, 298.15 K
  solubility (mole fraction): 0.00298
In n-propanol, 303.15 K
  solubility (mole fraction): 0.00345
In n-propanol, 308.15 K
  solubility (mole fraction): 0.00399
In n-propanol, 313.15 K
  solubility (mole fraction): 0.00462
In n-propanol, 318.15 K
  solubility (mole fraction): 0.00532
In water, 273.15 K
  solubility (mole fraction): 5.99e-06
In water, 278.15 K
  solubility (mole fraction): 6.47e-06
In water, 283.15 K
  solubility (mole fraction): 6.99e-06
In water, 288.15 K
  solubility (mole fraction): 7.58e-06
In water, 293.15 K
  solubility (mole fraction): 8.19e-06
In water, 298.15 K
  solubility (mole fraction): 8.88e-06
In water, 303.15 K
  solubility (mole fraction): 9.62e-06
In water, 308.15 K
  solubility (mole fraction): 1.04e-05
In water, 313.15 K
  solubility (mole fraction): 1.13e-05
In water, 318.15 K
  solubility (mole fraction): 1.23e-05
